The results in this text go back to ChEMBL document CHEMBL3044807, “Synthesis and biological evaluation of new ozonides with improved plant growth regulatory activity” (2009).

Molecules are shown by their SMILES.

What all share (type): functional
Assay [1] concerns Cucumis sativus. The experiment in a line: Phytotoxic activity against Cucumis sativus (cucumber) seedlings assessed as inhibition of radicle growth at 5x10'-4 mol/l at 28 +/-1 degC after 48 hr by acid-washed sand based radicle elongation assay (reference value: 0.0%).
In assay [2] the test system is Sorghum bicolor. The experiment in a line: Phytotoxic activity against Sorghum bicolor seedlings assessed as radicle length at 5x10'-4 mol/l at 28 +/-1 degC after 48 hr by acid-washed sand based radicle elongation assay (reference value: 5.1 cm).
Assay [3] deals with Cucumis sativus. The experiment in a line: Phytotoxic activity against Cucumis sativus (cucumber) assessed as aerial part growth inhibition at 5.0 x 10^-4 mol/l measured 15 days after seed sowing under greenhouse trials (reference value: 0.0%). The settings on record: 360 h.
Assay [4] concerns Cucumis sativus. The experiment in a line: Phytotoxic activity against Cucumis sativus (cucumber) seedlings assessed as radicle length at 5x10'-4 mol/l at 28 +/-1 degC after 48 hr by acid-washed sand based radicle elongation assay (reference value: 4.8 cm).
Assay [5] has as its system Sorghum bicolor. The experiment in a line: Phytotoxic activity against Sorghum bicolor assessed as weight of aerial parts at 5.0 x 10^-4 mol/l measured 15 days after seed sowing under greenhouse trials (reference value: 19.0 mg).
Assay [6] deals with Cucumis sativus. The experiment in a line: Phytotoxic activity against Cucumis sativus (cucumber) assessed as weight of aerial parts at 5.0 x 10^-4 mol/l measured 15 days after seed sowing under greenhouse trials (reference value: 47.0 mg).
For assay [7], the system named is Cucumis sativus. The experiment in a line: Phytotoxic activity against Cucumis sativus (cucumber) seedlings assessed as germination at 5x10'-4 mol/l at 28 +/-1 degC after 48 hr by acid-washed sand based radicle elongation assay (reference value: 100%).
Assay [8] has as its system Sorghum bicolor. The assay is described as follows: Phytotoxic activity against Sorghum bicolor seedlings assessed as inhibition of radicle growth at 5x10'-4 mol/l at 28 +/-1 degC after 48 hr by acid-washed sand based radicle elongation assay (reference value: 0.0%).
The test system of assay [9] is Cucumis sativus. The experiment in a line: Phytotoxic activity against Cucumis sativus (cucumber) assessed as root growth inhibition at 5.0 x 10^-4 mol/l measured 15 days after seed sowing under greenhouse trials (reference value: 0.0%). The settings on record: 360 h.
In assay [10] the test system is Cucumis sativus. The assay is described as follows: Phytotoxic activity against Cucumis sativus (cucumber) assessed as weight of roots at 5.0 x 10^-4 mol/l measured 15 days after seed sowing under greenhouse trials (reference value: 31.0 mg).
In assay [11] the test system is Sorghum bicolor. The experiment in a line: Phytotoxic activity against Sorghum bicolor assessed as root growth inhibition at 5.0 x 10^-4 mol/l measured 15 days after seed sowing under greenhouse trials (reference value: 0.0%). The conditions noted are these: 360 h.
The subject of assay [12] is Sorghum bicolor. The experiment in a line: Phytotoxic activity against Sorghum bicolor assessed as aerial part growth inhibition at 5.0 x 10^-4 mol/l measured 15 days after seed sowing under greenhouse trials (reference value: 0.0%). The conditions noted are these: 360 h.
Assay [13] has as its system Sorghum bicolor. The experiment in a line: Phytotoxic activity against Sorghum bicolor seedlings assessed as germination at 5x10'-4 mol/l at 28 +/-1 degC after 48 hr by acid-washed sand based radicle elongation assay (reference value: 100%).
Assay [14] concerns Sorghum bicolor. The experiment in a line: Phytotoxic activity against Sorghum bicolor assessed as weight of roots at 5.0 x 10^-4 mol/l measured 15 days after seed sowing under greenhouse trials (reference value: 14.0 mg).
Assay [15] has as its system Urochloa decumbens. The experiment in a line: Phytotoxic activity against Urochloa decumbens assessed as weight of root at 5.0 x 10^-4 mol/l measured 21 days after seed sowing under greenhouse trials (reference value: 21.2 mg).
The subject of assay [16] is Ipomoea grandifolia. The assay is described as follows: Phytotoxic activity against Ipomoea grandifolia assessed as weight of root at 5.0 x 10^-4 mol/l measured 21 days after seed sowing under greenhouse trials (reference value: 18.4 mg).
In assay [17] the test system is Urochloa decumbens. The experiment in a line: Phytotoxic activity against Urochloa decumbens assessed as weight of aerial parts at 5.0 x 10^-4 mol/l measured 21 days after seed sowing under greenhouse trials (reference value: 22.0 mg).
The test system of assay [18] is Urochloa decumbens. The assay is described as follows: Phytotoxic activity against Urochloa decumbens assessed as root growth inhibition at 5.0 x 10^-4 mol/l measured 21 days after seed sowing under greenhouse trials (reference value: 0.0%). The conditions noted are these: 504 h.
The test system of assay [19] is Ipomoea grandifolia. The experiment in a line: Phytotoxic activity against Ipomoea grandifolia assessed as root growth inhibition at 5.0 x 10^-4 mol/l measured 21 days after seed sowing under greenhouse trials (reference value: 0.0%). The conditions noted are these: 504 h.
In assay [20] the test system is Urochloa decumbens. The assay is described as follows: Phytotoxic activity against Urochloa decumbens assessed as aerial part growth inhibition at 5.0 x 10^-4 mol/l measured 21 days after seed sowing under greenhouse trials (reference value: 0.0%). The conditions noted are these: 504 h.
The test system of assay [21] is Ipomoea grandifolia. The experiment in a line: Phytotoxic activity against Ipomoea grandifolia assessed as aerial part growth inhibition at 5.0 x 10^-4 mol/l measured 21 days after seed sowing under greenhouse trials (reference value: 0.0%). The conditions noted are these: 504 h.
Assay [22] relates to Ipomoea grandifolia. The experiment in a line: Phytotoxic activity against Ipomoea grandifolia assessed as weight of aerial parts at 5.0 x 10^-4 mol/l measured 21 days after seed sowing under greenhouse trials (reference value: 17.8 mg).

For `CC1=C2CCC(C)C[C@@]23O[C@H]1[C@H](C)C(=O)[C@H]3C` (stereo partly drawn), the inhibition – broadly, the drop in the measured response relative to a control, in per cent – at 500 µM was found to be 72.4% in assay [1]; 5.9% in assay [3]; 71.4% in assay [8]; 34.4% in assay [9]; 6.2% in assay [11]; 26.3% in assay [12]. For the same compound, the Activity in assay [2] is on record as 1.5 cm; in [4], 1.3 cm; in assay [5], 14 mg; in [6], 44.2 mg; in assay [10] it was 20.3 mg; in [14] it was 13.1 mg. Also, the germination % at 500 µM in assay [7] and in assay [13] was 96% each time.
Regarding `O=C1[C@@H]2CCCC[C@@H]1[C@@H]1C=C[C@@H]2O1`, the inhibition at 500 µM stood at 82.2% in assay [1]; 30.4% in [3]; 62% in [8]; 47.3% in [9]; 6.2% in [11]; 4.5% in assay [12]. For the same compound, the Activity in assay [2] is given as 1.9 cm; in assay [4], 0.9 cm; in assay [5] it was 18.1 mg; in [6], 32.7 mg; in assay [10], 16.5 mg; in assay [14], 13.1 mg. For the same compound, the figures for the germination % at 500 µM in assay [7] and in [13] were 90% and 93%, respectively.
Consider `C[C@@]12C=C[C@H](O1)[C@H]1CCCC[C@H]2C1=O`, for which the inhibition at 500 µM was 74.7% in assay [1]; 44.6% in [3]; 58.9% in [8]; 43.1% in assay [9]; 30.7% in [11]; 42.6% in assay [12]. Also, the Activity in assay [2] is 2.1 cm; in [4], 1.2 cm; in assay [5] it was 10.9 mg; in assay [6] it was 26 mg; in [10] it was 17.6 mg; in assay [14] it was 9.7 mg. The results for the germination % at 500 µM in assay [7] and in [13] were 95% and 99%, respectively.
As for `CC[C@@]12C=C[C@H](O1)[C@H]1CCCC[C@H]2C1=O`, the inhibition at 500 µM in [1] worked out at 73.2%; in [3], 69.2%; in assay [8], 64.2%; in [9] it was 49.2%; in assay [11] it was 49%; in [12], 48.8%. Besides, the Activity was found to be 1.8 cm in assay [2]; 1.3 cm in assay [4]; 9.7 mg in [5]; 14.5 mg in assay [6]; 15.8 mg in [10]; 7.7 mg in assay [14]. Also, the germination % at 500 µM in assay [7] and in assay [13] was 100% throughout.
As for `CC1=C[C@@H]2O[C@]1(C)[C@H]1CCCC[C@H]2C1=O`, the inhibition at 500 µM was determined as 82.1% in assay [1]; 65.4% in assay [3]; 82.5% in assay [8]; 62.1% in assay [9]; 49.6% in assay [11]; 47.4% in assay [12]. The Activity in [2] turned out to be 0.9 cm; in [4], 0.9 cm; in assay [5] it was 10 mg; in [6], 16.3 mg; in [10], 11.7 mg; in assay [14], 7.1 mg. The values for the germination % at 500 µM in [7] and in assay [13] were 96% and 79%, respectively.
Take `C[C@@]12C=C[C@](C)(O1)[C@H]1CCCC[C@H]2C1=O`: the inhibition at 500 µM turned out to be 70.7% in assay [1]; 15.6% in [3]; 83.4% in assay [8]; 66.2% in assay [9]; 14.8% in [11]; 32.9% in assay [12]. For the same compound, the Activity in [2] came to 0.9 cm; in [4], 1.4 cm; in assay [5], 12.7 mg; in assay [6] it was 39.7 mg; in [10], 10.5 mg; in [14] it was 11.9 mg. For the same compound, the germination % at 500 µM in assay [7] came out at 82%; in assay [13] it was 100%.
With `CC12OC(C3OOC1O3)C1CCCCC2C1=O` (mixture of isomers), the inhibition at 500 µM turned out to be 52% in [1]; 63.9% in [3]; 71.5% in assay [8]; 65.9% in [9]; 11.8% in assay [11]; 20% in assay [12]. The Activity in assay [2] turned out to be 1.5 cm; in assay [4], 2.3 cm; in assay [5], 15.4 mg; in assay [6], 17 mg; in assay [10], 10.6 mg; in assay [14], 12.7 mg. Besides, the germination % at 500 µM was 70% in assay [7] and 96% in assay [13].
As for `CC12OOC(O1)C1OC2(C)C2CCCCC1C2=O` (mixture of isomers), the inhibition at 500 µM in assay [1] amounted to 84.2%; in assay [3], 29.9%; in [8] it was 80.2%; in [9], 57.4%; in [11], 34.6%; in assay [12] it was 41.8%. For the same compound, the Activity in [2] turned out to be 1 cm; in assay [4] it was 0.8 cm; in assay [5], 11.1 mg; in assay [6], 32.9 mg; in assay [10], 13.2 mg; in assay [14], 9.2 mg. Also, the germination % at 500 µM in [7] and in assay [13] was 100% throughout.
In the case of `CC1CCC23OOC(C)(O2)C2OC3(C1)C(C)C(=O)C2C` (mixture of isomers), the inhibition at 500 µM was 39.9% in assay [1]; 36.9% in assay [3]; 72.1% in [8]; 50.8% in [9]; 9.1% in [11]; 6.8% in assay [12]. Moreover, the Activity worked out at 1.4 cm in assay [2]; 2.9 cm in [4]; 17.7 mg in assay [5]; 29.7 mg in assay [6]; 15.3 mg in assay [10]; 12.7 mg in [14]. In addition, the figures for the germination % at 500 µM in [7] and in assay [13] were 93% and 96%, respectively.
Turning to `CCC1C(=O)C(CC)C23CC(C)CCC24OOC(C)(O4)C1O3` (mixture of isomers), the inhibition at 500 µM came to 55.6% in assay [1]; 36% in assay [3]; 55.1% in assay [8]; 6.5% in [9]; 6.5% in assay [11]; 39.6% in assay [12]. Besides, the Activity in assay [2] was determined as 2.3 cm; in [4], 2.1 cm; in [5], 11.5 mg; in assay [6], 30.1 mg; in [10] it was 29 mg; in assay [14] it was 13.1 mg. The germination % at 500 µM in assay [7] was 96%; in assay [13], 100%.
In the case of `C[C@@H]1CC[C@H]2[C@@H](C)C(=O)O[C@@H]3O[C@@]4(C)CC[C@@H]1[C@]32OO4` [ARTEMISININ], the Activity is listed as 3.1 mg in assay [15], 0.7 mg in [16], 2.9 mg in assay [17] and 1.2 mg in [22]. For the same compound, the inhibition at 500 µM is 95% in [18], 95% in assay [19], 93.6% in assay [20] and 93.6% in assay [21].
